The source made the active and inactive calls. No cut-off for these calls is given here.
Key:
SARS-CoV-2 [1] = experiment: microbe, parasite or virus in culture; details: Severe acute respiratory syndrome coronavirus 2, NRC-03-nhCoV, Vero C1008, 72 h
Description: Anti-SARS-CoV-2 activity against SARS-CoV-2 NRC-03-nhCoV infected in African green monkey Vero E6 cells assessed as inhibition of viral replication incubated for 72 hrs by crystal violet staining based analysis

in vitro = details: monkey, Vero E6 cells
Description: Selectivity index, ratio of CC50 for cytotoxicity against African green monkey Vero E6 cells to IC50 for anti-SARS-CoV-2 activity against SARS-CoV-2 NRC-03-nhCoV infected in African green monkey Vero E6 cells

SARS-CoV-2 [2] = format: functional, Vero E6; details: for inhibition at 10 µg/mL: Severe acute respiratory syndrome coronavirus 2, Vero C1008, 72 h, time 3 day
[3] = target: Replicase polyprotein 1ab (Severe acute respiratory syndrome coronavirus 2, UniProt P0DTD1); experiment: Inhibition of SARS-CoV-2 recombinant RdRp preincubated with enzyme for 15 mins followed by single stranded polyribonucleotide template and NTPs addition and measured after 2 hrs by fluorescence spectrometric analysis
SARS-CoV-2 [4] = format: functional, Vero E6; details: for inhibition at 10 µg/mL: Severe acute respiratory syndrome coronavirus 2, Vero C1008, 96 h, time 4 day
SARS-CoV-2 [5] = format: functional, Vero E6; details: Severe acute respiratory syndrome coronavirus 2, Vero C1008, 72 h, time 3 day
[6] = target: Replicase polyprotein 1ab (Severe acute respiratory syndrome coronavirus 2) (UniProt P0DTD1); experiment: Inhibition of SARS-CoV-2 recombinant RdRp at 50 ug/ml preincubated with enzyme for 15 mins followed by single stranded polyribonucleotide template and NTPs addition and measured after 2 hrs by fluorescence spectrometric analysis relative to control; details: dose 50.0 µg/ml, time 135.0 min
SARS-CoV-2 [7] = format: functional; details: Severe acute respiratory syndrome coronavirus 2, Calu-3, 96 h; dose 15 nM; time 4 day
SARS-CoV-2 [8] = experiment: microbe, parasite or virus in culture; details: Severe acute respiratory syndrome coronavirus 2, NRC-03-nhCoV, Calu-3, 72 h
Description: Anti-SARS-CoV-2 activity against SARS-CoV-2 NRC-03-nhCoV infected in human Calu-3 cells expressing TMPRSS2 assessed as inhibition of viral replication incubated for 72 hrs by crystal violet staining based analysis

[9] = Cytotoxicity against human Calu-3 cells; format: toxicity, cell-based
SARS-CoV-2 [10] = format: functional; details: Severe acute respiratory syndrome coronavirus 2, Calu-3, 96 h; dose 30 nM; time 4 day

Row | SMILES | IC50 (SARS-CoV-2 [1]) | selectivity ratio (in vitro) | IC50 [3] | inhibition at 10 µg/mL (SARS-CoV-2 [5]) | inhibition [6] | further results
1 | O=C(Nc1ccn(C2OC(CO)C(O)C2O)c(=O)n1)c1ccc(Nc2ncccn2)cc1 (stereo unspecified) | 52 nM | 7.18 |  |  |  | 
2 | N#C[C@@]1(c2ccc3c(NC(=O)c4ccc(NC(=N)N)cc4)ncnn23)O[C@H](CO)[C@@H](O)[C@H]1O | 3.9 nM |  | 6.1 nM | 66% | 91.5% | inhibition at 10 µg/mL (SARS-CoV-2 [2]): 51.4%; inhibition at 10 µg/mL (SARS-CoV-2 [4]): 44%
3 | CN(C)C(=O)COC(=O)Cc1ccc(OC(=O)c2ccc(NC(=N)N)cc2)cc1 [CAMOSTAT] |  |  |  |  |  | inhibition at 0.015 µM (SARS-CoV-2 [7]): 70%; IC50 (SARS-CoV-2 [8]): 8.21 nM; CC50 [9]: 230 nM; inhibition at 0.03 µM (SARS-CoV-2 [10]): 80%
4 | CC(C)c1cc(=O)oc2ccc(OC(=O)c3ccc(NC(=N)N)cc3)cc12 | 5.7 nM |  | 4.42 nM | 63.2% | 89% | inhibition at 0.015 µM (SARS-CoV-2 [7]): 45%; inhibition at 10 µg/mL (SARS-CoV-2 [2]): 90.5%; inhibition at 10 µg/mL (SARS-CoV-2 [4]): 65%; IC50 (SARS-CoV-2 [8]): 17.5 nM; CC50 [9]: 450 nM; inhibition at 0.03 µM (SARS-CoV-2 [10]): 60%
5 | CC(C)(C)OC(=O)Nc1ccc(C(=O)Nc2ncnn3c([C@]4(C#N)O[C@H](CO)[C@@H](O)[C@H]4O)ccc23)cc1 | 42.2 nM | 6.65 |  |  |  | 
6 | CCC(CC)COC(=O)[C@H](C)N[P@](=O)(OC[C@H]1O[C@@](C#N)(c2ccc3c(N)ncnn23)[C@H](O)[C@@H]1O)Oc1ccccc1 [REMDESIVIR] | 55.6 nM | 3.02 |  |  | 73% | 
7 | N=C(N)Nc1ccc(C(=O)Nc2ncnc3[nH]cnc23)cc1 | 22.8 nM | 1 |  |  |  | 
8 | N#C[C@@]1(c2ccc3c(NC(=O)c4ccc(Nc5ncccn5)cc4)ncnn23)O[C@H](CO)[C@@H](O)[C@H]1O | 19.7 nM | 2.64 | 32.4 nM | 51.3% | 77% | inhibition (SARS-CoV-2 [2]; Severe acute respiratory syndrome coronavirus 2, Vero E6, dose 10.0 µg/ml, time 3.0 day): inactive; inhibition (SARS-CoV-2 [4]; Severe acute respiratory syndrome coronavirus 2, Vero E6, dose 10.0 µg/ml, time 4.0 day): inactive

From ChEMBL document CHEMBL5614378, “Novel compounds with dual inhibition activity against SARS-CoV-2 critical enzymes RdRp and human TMPRSS2” (Eur J Med Chem, 2024)
